Laboratory results: patent US7396837B2, “Antitumoral analogs of lamellarins” (Pharma Mar, S.A.U., priority 2002, dated 2008)
Like-named read-outs stand apart in the source and are kept apart here.

How the values were obtained:
Assay type in all cases: cell-based
K-562 = experiment: SRB colorimetric cell growth inhibition assay, K-562; settings: Homo sapiens, K562, K-562; for GI50: GI=growth inhibition, read-out: GI50 K-562; for CC50: cell killing (cytotoxic effect), read-out: LC50 K-562; for IC (TGI): total growth inhibition (cytostatic effect), read-out: TGI K-562
In short: (§1)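 Human tumour cells continuously exposed to compound in 96-well culture; growth and viability quantified colorimetrically by sulforhodamine B staining. Mean ± SD from triplicate wells; GI (growth inhibition), TGI (total growth inhibition, cytostatic) and LC (cell killing, cytotoxic) parameters derived.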

A-549 = experiment: SRB colorimetric cell growth inhibition assay, A-549; settings: for GI50: GI=growth inhibition, read-out: GI50 A-549; for CC50: cell killing (cytotoxic effect), read-out: LC50 A-549; for IC (TGI): read-out: TGI A-549
In short: as §1

SK-MEL-28 = experiment: SRB colorimetric cell growth inhibition assay, SK-MEL-28; settings: for GI50: GI=growth inhibition, read-out: GI50 MEL-28; for CC50: cell killing (cytotoxic effect), read-out: LC50 MEL-28
In short: as §1

HT-29 = experiment: SRB colorimetric cell growth inhibition assay, HT-29; settings: for GI50: GI=growth inhibition, read-out: GI50 HT-29; for CC50: cell killing (cytotoxic effect), read-out: LC50 HT-29; for IC (TGI): read-out: TGI HT-29
In short: as §1

LoVo = experiment: SRB colorimetric cell growth inhibition assay, LoVo; settings: for GI50: GI=growth inhibition, read-out: GI50 LOVO; for CC50: cell killing (cytotoxic effect), read-out: LC50 LOVO; for IC (TGI): total growth inhibition (cytostatic effect), read-out: TGI LOVO
In short: as §1

LoVo-Dox = experiment: SRB colorimetric cell growth inhibition assay, LoVo-Dox (MDR); settings: Homo sapiens, LOVO-DOX; for GI50: GI=growth inhibition, read-out: GI50 LOVO-DOX; for CC50: cell killing (cytotoxic effect), read-out: LC50 LOVO-DOX; for IC (TGI): total growth inhibition (cytostatic effect), read-out: TGI LOVO-DOX
In short: as §1

DU-145 = experiment: SRB colorimetric cell growth inhibition assay, DU-145; settings: for GI50: GI=growth inhibition, read-out: GI50 DU-145; for CC50: cell killing (cytotoxic effect), read-out: LC50 DU-145; for IC (TGI): read-out: TGI DU-145
In short: as §1

LNCaP = experiment: SRB colorimetric cell growth inhibition assay, LNCaP; settings: Homo sapiens, LNCaP, LN-caP; for GI50: GI=growth inhibition, read-out: GI50 LN-caP; for CC50: cell killing (cytotoxic effect), read-out: LC50 LN-caP; for IC (TGI): total growth inhibition (cytostatic effect), read-out: TGI LN-caP
In short: as §1

SK-BR-3 = experiment: SRB colorimetric cell growth inhibition assay, SK-BR-3; settings: for CC50: cell killing (cytotoxic effect), read-out: LC50 SK-BR-3; for GI50: GI=growth inhibition, read-out: GI50 SK-BR-3
In short: as §1

IGROV = experiment: SRB colorimetric cell growth inhibition assay, IGROV; settings: IGROV; for CC50: cell killing (cytotoxic effect), read-out: LC50 IGROV; for IC (TGI): total growth inhibition (cytostatic effect), read-out: TGI IGROV; for GI50: GI=growth inhibition, read-out: GI50 IGROV
In short: as §1

IGROV-ET = experiment: SRB colorimetric cell growth inhibition assay, IGROV-ET (ET-743 resistant); settings: IGROV-ET; for CC50: cell killing (cytotoxic effect), read-out: LC50 IGROV-ET; for IC (TGI): total growth inhibition (cytostatic effect), read-out: TGI IGROV-ET; for GI50: GI=growth inhibition, read-out: GI50 IGROV-ET
In short: as §1

PANC-1 = experiment: SRB colorimetric cell growth inhibition assay, PANC-1; settings: for CC50: cell killing (cytotoxic effect), read-out: LC50 PANC-1; for GI50: GI=growth inhibition, read-out: GI50 PANC-1
In short: as §1

SKOV-3 = experiment: SRB colorimetric cell growth inhibition assay, SKOV-3; settings: Homo sapiens; for GI50: SK-OV-3, SKOV-3, GI=growth inhibition, read-out: GI50 SKOV-3; for LC50 (concentration causing 50% net cell killing) / IC (TGI): SK-OV-3, SKOV-3; for LC50 (concentration causing 50% net cell killing): cell killing (cytotoxic effect), read-out: LC50 SKOV-3; for IC (TGI): total growth inhibition (cytostatic effect), read-out: TGI SKOV-3
Description: A colorimetric type of assay, using sulforhodamine B (SRB) reaction has been adapted for a quantitative measurement of cell growth and viability (following the technique described by P. A. Skehan, et al., J. Natl. Cancer Inst. 1990, 82, 1107-1112).
This form of assay employs 96 well cell culture microplates of 9 mm diameter (T. Mosmann et al., J. of Immunological Methods 1983, 65, 55-63; G. T. Faircloth et al., J. of Tissue and Culture Methods 1988, 11, 201-205).
Most of the cell lines are obtained from American Type Culture Collection (ATCC) derived from different human cancer types.
The values for mean +/− SD of data from triplicate wells are calculated. Some parameters for cellular responses can be calculated: GI=growth inhibition, TGI=total growth inhibition (cytostatic effect) and LC=cell killing (cytotoxic effect).

[1] = SRB colorimetric cell growth inhibition assay, H-MEC-1; settings: human, H-MEC-1, cell killing (cytotoxic effect), read-out: LC50 H-MEC-1
In short: (§2)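 Sulforhodamine B colorimetric assay of cell growth and viability, mean ± SD of triplicate wells. Parameters derived: GI (growth inhibition), TGI (total growth inhibition, cytostatic) and LC (cell killing, cytotoxic).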

H-MEC-1 = experiment: as above; settings: Homo sapiens, HMEC-1, H-MEC-1; for GI50: GI=growth inhibition, read-out: GI50 H-MEC-1; for IC (TGI): total growth inhibition (cytostatic effect), read-out: TGI H-MEC-1
In short: as §2

[2] = Homo sapiens, A549, A-549, total growth inhibition (cytostatic effect)
[3] = MEL-28, total growth inhibition (cytostatic effect)
[4] = Homo sapiens, HT-29, HT-29, total growth inhibition (cytostatic effect)
[5] = SK-BR-3, total growth inhibition (cytostatic effect)
[6] = PANC-1, total growth inhibition (cytostatic effect)
[7] = Homo sapiens, DU-145, DU-145, total growth inhibition (cytostatic effect)
[8] = Homo sapiens, SK-MEL-28, MEL-28

## COc1cc2ccn3c(c(-c4ccc(OC(=O)[C@@H](N)Cc5ccccc5)c(OC)c4)c4c5cc(OC)c(OC(=O)[C@@H](N)Cc6ccccc6)cc5oc(=O)c43)c2cc1OC [Compound 18]
K-562
  GI50: 558 nM
  CC50: 8.64 µM
  IC (TGI): 1.51 µM
A-549; Homo sapiens, A549, A-549
  GI50: 1610 nM
  CC50: 9.99 µM
A-549; [2]
  IC (TGI): 4 µM
SK-MEL-28; MEL-28
  GI50: 524 nM
  CC50: 4.43 µM
SK-MEL-28; [3]
  TGI MEL-28: 1.44E−06 Molar
HT-29; HT-29
  GI50: 819 nM
HT-29; Homo sapiens, HT-29, HT-29
  CC50: 12.3 µM
HT-29; [4]
  IC (TGI): 4.54 µM
LoVo; Homo sapiens, LoVo
  GI50: 664 nM
  CC50: 12.3 µM
  IC (TGI): 2.37 µM
LoVo-Dox
  GI50: 1080 nM
  CC50: 12.1 µM
  IC (TGI): 3.67 µM
DU-145; DU-145
  GI50: 505 nM
DU-145; DU-145, total growth inhibition (cytostatic effect)
  TGI DU-145: 1.41E−06 Molar
DU-145; Homo sapiens, DU-145, DU-145
  CC50: 7.04 µM
LNCaP
  GI50: 359 nM
  CC50: 4.27 µM
  IC (TGI): 1.27 µM
SK-BR-3; Homo sapiens, SK-BR-3, SK-BR-3
  CC50: 10.5 µM
SK-BR-3; SK-BR-3
  GI50: 458 nM
SK-BR-3; [5]
  TGI SK-BR-3: 2.14E−06 Molar
IGROV; Homo sapiens
  CC50: 7.91 µM
  IC (TGI): 3.21 µM
IGROV
  GI50: 1310 nM
IGROV-ET; Homo sapiens
  CC50: 12.3 µM
  IC (TGI): 5.14 µM
IGROV-ET
  GI50: 2000 nM
PANC-1; Homo sapiens, PANC-1, PANC-1
  CC50: 12.3 µM
PANC-1; PANC-1
  GI50: 992 nM
PANC-1; [6]
  TGI PANC-1: 3.70E−06 Molar
SKOV-3
  GI50: 1220 nM
  LC50 (concentration causing 50% net cell killing): 6.51 µM
  IC (TGI): 2.82 µM
[1]
  LC50 (concentration giving 50% net cell killing): 2930 nM
H-MEC-1
  GI50: 494 nM
  IC (TGI): 0.846 µM

## COc1cc2ccn3c(c(-c4ccc(OC(=O)[C@@H](N)C(C)C)c(OC)c4)c4c5cc(OC)c(OC(=O)[C@@H](N)C(C)C)cc5oc(=O)c43)c2cc1OC [Compound 19]
K-562
  GI50: 1840 nM
  CC50: 11.6 µM
  IC (TGI): 4.62 µM
A-549; A-549
  CC50: 6.32 µM
A-549; A-549, total growth inhibition (cytostatic effect)
  TGI A-549: 2.13E−06 Molar
A-549; Homo sapiens, A549, A-549
  GI50: 605 nM
SK-MEL-28; MEL-28
  GI50: 273 nM
  CC50: 4.99 µM
SK-MEL-28; [3]
  TGI MEL-28: 1.53E−06 Molar
HT-29; HT-29
  GI50: 109 nM
HT-29; HT-29, total growth inhibition (cytostatic effect)
  TGI HT-29: 2.10E−06 Molar
HT-29; Homo sapiens, HT-29, HT-29
  CC50: 7.29 µM
LoVo; Homo sapiens, LoVo
  GI50: 722 nM
  IC (TGI): 2.33 µM
LoVo; LOVO
  CC50: 6.6 µM
LoVo-Dox
  GI50: 874 nM
  CC50: 8.03 µM
  IC (TGI): 2.72 µM
DU-145; DU-145
  CC50: 6.85 µM
DU-145; Homo sapiens, DU-145, DU-145
  GI50: 532 nM
DU-145; [7]
  IC (TGI): 2.16 µM
LNCaP
  GI50: 94.1 nM
  CC50: 5.37 µM
  IC (TGI): 1.41 µM
SK-BR-3; Homo sapiens, SK-BR-3, SK-BR-3
  CC50: 14 µM
SK-BR-3; SK-BR-3
  GI50: 165 nM
SK-BR-3; [5]
  TGI SK-BR-3: 2.28E−06 Molar
IGROV; Homo sapiens
  GI50: 406 nM
  CC50: 9.34 µM
  IC (TGI): 2.51 µM
IGROV-ET; Homo sapiens
  GI50: 761 nM
  CC50: 11.3 µM
  IC (TGI): 2.54 µM
PANC-1; Homo sapiens, PANC-1, PANC-1
  CC50: 9.5 µM
PANC-1; PANC-1
  GI50: 245 nM
PANC-1; [6]
  TGI PANC-1: 2.42E−06 Molar
SKOV-3
  GI50: 758 nM
  LC50 (concentration causing 50% net cell killing): 6.57 µM
  IC (TGI): 2.31 µM
[1]; H-MEC-1 cells
  LC50 (concentration giving 50% net cell killing): 7160 nM
H-MEC-1
  GI50: 807 nM
  IC (TGI): 2.42 µM

## COc1cc2c(cc1OC)-c1c(-c3ccc(OC(=O)[C@H](C)NC(=O)OC(C)(C)C)c(OC)c3)c3c4cc(OC)c(OC(=O)[C@H](C)NC(=O)OC(C)(C)C)cc4oc(=O)c3n1CC2 [Compound 21]
K-562
  GI50: 286 nM
  CC50: 2.39 µM
  IC (TGI): 0.582 µM
A-549; Homo sapiens, A549, A-549
  GI50: 1390 nM
  CC50: 11.7 µM
A-549; [2]
  IC (TGI): 4.62 µM
SK-MEL-28; [8]
  GI50: 287 nM
  CC50: 0.86 µM
SK-MEL-28; Homo sapiens, SK-MEL-28, MEL-28, total growth inhibition (cytostatic effect), read-out: TGI MEL-28
  IC (TGI): 0.497 µM
HT-29; Homo sapiens, HT-29, HT-29
  GI50: 512 nM
  CC50: 11.7 µM
HT-29; [4]
  IC (TGI): 11.7 µM
LoVo; Homo sapiens, LoVo
  GI50: 1950 nM
  CC50: 11.7 µM
  IC (TGI): 4.97 µM
LoVo-Dox
  GI50: 4970 nM
  CC50: 11.7 µM
  IC (TGI): 11.7 µM
DU-145; Homo sapiens, DU-145, DU-145
  GI50: 353 nM
  CC50: 11.7 µM
DU-145; [7]
  IC (TGI): 0.703 µM
LNCaP
  GI50: 190 nM
  CC50: 0.775 µM
  IC (TGI): 0.383 µM
SK-BR-3; Homo sapiens, SK-BR-3, SK-BR-3
  GI50: 342 nM
  CC50: 11.7 µM
SK-BR-3; Homo sapiens, SK-BR-3, SK-BR-3, total growth inhibition (cytostatic effect), read-out: TGI SK-BR-3
  IC (TGI): 0.599 µM
IGROV; Homo sapiens
  GI50: 315 nM
  CC50: 9.02 µM
  IC (TGI): 0.664 µM
IGROV-ET; Homo sapiens
  GI50: 901 nM
  CC50: 11.7 µM
  IC (TGI): 5.18 µM
PANC-1; Homo sapiens, PANC-1, PANC-1
  GI50: 514 nM
  CC50: 11.7 µM
PANC-1; Homo sapiens, PANC-1, PANC-1, total growth inhibition (cytostatic effect), read-out: TGI PANC-1
  IC (TGI): 1.81 µM
SKOV-3
  GI50: 849 nM
  LC50 (concentration causing 50% net cell killing): 11.7 µM
  IC (TGI): 11.7 µM
[1]; H-MEC-1 cells
  LC50 (concentration giving 50% net cell killing): 922 nM
H-MEC-1
  GI50: 281 nM
  IC (TGI): 0.509 µM
